# pKi: −log10 of the molar value.
# Columns and labels:
# Settings in all cases: CHO cell membrane fraction; 2.5 nM 3H-PGE2; pH 6.0; room temperature, 1 hour; more polar stereoisomer
# [1] = target: T1, mouse EP1 (Mus musculus, UniProt P35375); assay: Binding assay using expression cell of prostanoids receptor subtype (competition of specific 3H-PGE2 binding), EP1
# T1 construct: expressed in transfected cells; host or cells: CHO cells (membrane fraction)
# T1 sequence (P35375 1-405): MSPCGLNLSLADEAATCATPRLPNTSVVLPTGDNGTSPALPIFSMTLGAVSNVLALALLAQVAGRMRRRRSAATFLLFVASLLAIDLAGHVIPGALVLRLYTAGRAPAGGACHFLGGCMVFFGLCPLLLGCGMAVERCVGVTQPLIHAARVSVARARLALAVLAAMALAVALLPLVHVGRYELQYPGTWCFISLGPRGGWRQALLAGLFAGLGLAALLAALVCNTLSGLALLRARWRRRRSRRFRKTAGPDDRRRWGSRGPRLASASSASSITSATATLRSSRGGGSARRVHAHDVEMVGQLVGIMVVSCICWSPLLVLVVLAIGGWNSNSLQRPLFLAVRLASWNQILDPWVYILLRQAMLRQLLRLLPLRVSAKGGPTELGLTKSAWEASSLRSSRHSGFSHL
# Procedure: (§1) (i) Binding Assay Using Expression Cell of Prostanoids Receptor Subtype
# (§2) The preparation of membrane fraction was carried out according to the method of Sugimoto et. al., [J. Biol. Chem., 267, 6463-6466 (1992)], using expression CHO cell of the prostanoids receptor subtype (mouse EP1, EP2, EP3α, EP4).
# (§3) The standard assay mixture containing membrane fraction (0.5 mg/ml) and [^3 H]-PGE2 ([…]) in a final volume of 200 μl was incubated at room temperature for 1 hour. The reaction was terminated by addition of ice-cooled buffer (3 ml). The mixture was filtered through a GF/B glass filter under reduced pressure. The radioactivity associated with the filter was measured by liquid scintillation counter.
# (§4) Kd and Bmax values were determined from Scatchard plots [Ann. N. Y. Acad. Sci., 51, 660 (1949)]. Non-specific binding was calculated as the binding in the presence of an excess (2.5 μM) of unlabeled PGE2. In the experiment for competition of specific ^3 H-PGE2 binding by the compounds of the present invention, 2.5 nM of ^3 H-PGE2 and various concentrations of compounds of the present invention were added. The following buffer was used in all reactions.
# (§5) Buffer: 10 mM potassium phosphate (pH 6.0), 1 mM EDTA, 10 mM MgCl2, 0.1 M NaCl.
# (§6) All the values shown are those obtained using the more polar stereoisomer of the exemplified compounds. The dissociation constant; i.e. Ki (μM) of each compound was calculated by the following equation.
# [2] = target: T2, mouse EP2 (Mus musculus, UniProt Q62053); assay: Binding assay using expression cell of prostanoids receptor subtype (competition of specific 3H-PGE2 binding), EP2
# T2 construct: expressed in transfected cells; host or cells: CHO cells (membrane fraction)
# Procedure: as §1, §2, §3, §4, §5, §6
# [3] = target: T3, mouse EP3α (Mus musculus, UniProt P30557); assay: Binding assay using expression cell of prostanoids receptor subtype (competition of specific 3H-PGE2 binding), EP3α
# T3 construct: expressed in transfected cells; host or cells: CHO cells (membrane fraction)
# T3 sequence (P30557 1-365): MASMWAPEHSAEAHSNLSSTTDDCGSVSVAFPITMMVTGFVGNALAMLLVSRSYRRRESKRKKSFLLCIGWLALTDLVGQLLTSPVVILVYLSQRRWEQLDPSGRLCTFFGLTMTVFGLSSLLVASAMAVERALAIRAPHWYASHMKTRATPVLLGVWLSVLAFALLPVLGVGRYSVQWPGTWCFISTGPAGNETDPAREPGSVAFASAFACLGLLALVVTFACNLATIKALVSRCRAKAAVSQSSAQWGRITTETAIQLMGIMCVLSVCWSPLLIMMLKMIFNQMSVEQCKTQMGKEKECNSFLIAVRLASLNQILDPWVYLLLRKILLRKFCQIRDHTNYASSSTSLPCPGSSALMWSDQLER
# Procedure: as §1, §2, §3, §4, §5, §6
# [4] = target: T4, mouse EP4 (Mus musculus, UniProt P32240); assay: Binding assay using expression cell of prostanoids receptor subtype (competition of specific 3H-PGE2 binding), EP4
# T4 construct: expressed in transfected cells; host or cells: CHO cells (membrane fraction)
# Procedure: as §1, §2, §3, §4, §5, §6
# T4 sequence (P32240 whole entry): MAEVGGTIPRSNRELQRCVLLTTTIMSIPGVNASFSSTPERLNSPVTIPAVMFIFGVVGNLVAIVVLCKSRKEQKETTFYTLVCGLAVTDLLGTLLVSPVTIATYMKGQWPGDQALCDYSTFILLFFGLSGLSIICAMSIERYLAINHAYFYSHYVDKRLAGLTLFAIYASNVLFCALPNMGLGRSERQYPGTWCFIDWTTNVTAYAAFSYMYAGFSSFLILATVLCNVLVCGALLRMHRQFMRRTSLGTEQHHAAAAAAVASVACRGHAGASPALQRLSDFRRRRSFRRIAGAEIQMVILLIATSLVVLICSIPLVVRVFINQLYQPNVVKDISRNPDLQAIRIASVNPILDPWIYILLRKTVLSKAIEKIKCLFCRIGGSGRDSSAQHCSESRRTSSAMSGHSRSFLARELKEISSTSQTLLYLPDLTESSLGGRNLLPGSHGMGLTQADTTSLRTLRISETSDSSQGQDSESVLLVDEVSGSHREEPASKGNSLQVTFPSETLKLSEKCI
# T2 sequence (Q62053 whole entry): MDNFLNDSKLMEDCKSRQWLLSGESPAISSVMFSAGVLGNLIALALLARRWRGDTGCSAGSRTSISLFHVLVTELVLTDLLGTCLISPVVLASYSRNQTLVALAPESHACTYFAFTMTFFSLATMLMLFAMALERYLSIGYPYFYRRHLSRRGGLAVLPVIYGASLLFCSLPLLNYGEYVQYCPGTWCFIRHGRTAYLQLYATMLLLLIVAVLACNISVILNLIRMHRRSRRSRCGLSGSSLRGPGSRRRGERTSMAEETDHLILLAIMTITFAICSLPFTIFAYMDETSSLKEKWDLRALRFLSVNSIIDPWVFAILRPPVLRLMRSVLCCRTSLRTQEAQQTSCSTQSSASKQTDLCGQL
Structure (SMILES),pKi [1],pKi [2],pKi [3],pKi [4]
"C=CCC1(C(O)C/C=C/[C@H]2[C@H](O)CC(=O)[C@@H]2CCc2ccc(C(=O)O)cc2)CCC1 (single isomer, unassigned) [Example 2(a), (11α,13E)-9-Oxo-11,16-dihydroxy-17,17-propano-1,6-(p-phenylene)-2,3,4,5-tetranorprost-13,19-dienoic Acid]",< 5.00,8.01,< 5.00,< 5.00
"O=C(O)c1ccc(CC[C@H]2C(=O)C[C@@H](O)[C@@H]2/C=C/CC(O)C2(CC3CC3)CCC2)cc1 (single isomer, unassigned) [Example 2(b), (11α,13E)-9-Oxo-11,16-dihydroxy-17,17-propano-19,20-methano-1,6-(p-phenylene)-2,3,4,5-tetranorprost-13-enoic Acid]",< 5.00,8.21,< 5.00,< 5.00
"C=CCC1(C(O)C/C=C/[C@@H]2[C@@H](CCc3ccc(C(=O)O)cc3)[C@H](Cl)C[C@H]2O)CCC1 (stereo partly drawn) [9(c), (9β,11α,13E) -9-Chloro-11,16-dihydroxy-17,17-propano-1,6-(p-phenylene)-2,3,4,5-tetranorprost-13,19-dienoic acid]",< 5.00,8.29,< 5.00,< 5.00
"C=CCC1(C(O)C/C=C/[C@@H]2C(SCc3ccc(C(=O)O)cc3)C(=O)C[C@H]2O)CCC1 (stereo partly drawn) [Example 5(b), (11α,13E)-9-Oxo-11,16-dihydroxy-17,17-propano-7-thia-1,6-(p-phenylene)-2,3,4,5-tetranorprost-13,19-dienoic Acid]",< 5.00,7.72,< 5.00,5.82
"O=C(O)c1ccc(CSC2C(=O)C[C@@H](O)[C@@H]2/C=C/CC(O)C2(CC3CC3)CCC2)cc1 (stereo partly drawn) [Example 5(d), (11α,13E) -9-Oxo-11,16-dihydroxy-17,17-propano-19,20-methano-7-thia-1,6-(p-phenylene)-2,3,4,5-tetranorprost-13-enoic Acid]",< 5.00,8.70,< 5.00,6.51

# Source: patent publication US6262293A, “ω-Cycloalkly-prostaglandin e2 derivatives” (Ono Pharmaceutical Co., Ltd., priority 1997, dated 2001)
